Experiments:
STAT92E = assay: Drosophila cell luciferase assay (10XSTAT92E-luciferase reporter); format: cell-based; conditions: compared with DMSO-treated group, concentration-dependent
Description: Drosophila cells (S2-NP, 24×3) used in the experiment were cultured as previously described (Kim B H, et al. Mol Cancer Ther. 7, 2672-2680 (2008)). S2-NP (Drosophila Schneider cell) cells were Drosophila-derived macrophage-like cells and were cultured in Schneider's medium. 24×3 cells were cell lines stably expressed by inserting 10XSTAT92E-luciferase and PolIII-Renilla luciferase-labeled plasmid DNA as reporter constructs into S2-NP cells and were cultured in a medium prepared by adding […] of geneticin to the same medium as that for S2-NP. S2-NP cells in which unpaired (upd) or HOPT^Tum-l as a ligand was expressed and 24×3 cells constructed with reporter constructs were mixed at a constant ratio and cultured for 24 hours in the presence of a compound, the expression level of STAT92E was measured using a luminometer, and the inhibition effect was compared with that of the DMSO-treated group.

STAT3 [1] = assay: Western blot analysis of the 13 selected compounds; format: cell-based; conditions: among the 13 selected compounds
Description: Western blot analysis was performed (Jung J E, et al. FASEB J. 19, 1296-1298 (2005)). The cells were washed two times with PBS and suspended in the lysate (50 mM Tris-HCl, pH 7.4, 350 mM NaCl, 1% Triton X-100, 0.5% Nonidet P-40, 10% glycerol, 0.1% SDS, 1 mM EDTA, 1 mM EGTA, 1 mM Na3VO4, 1 mM PMSF, protease and phosphorylation inhibitor) and the cell membrane and nuclear membrane were crushed to lyse the cells. The insoluble protein fraction was removed by centrifugation, and the supernatant was mixed with SDS electrophoresis buffer and electrophoresis (SDS-PAGE) was performed to detect the protein with the desired antibody and to confirm the protein expression level.

STAT3 [2] = target: T1, STAT3 (Homo sapiens, UniProt P40763); assay: STAT3-TA-luciferase assay in HEK293T cells; format: cell-based
T1 sequence (P40763 whole entry): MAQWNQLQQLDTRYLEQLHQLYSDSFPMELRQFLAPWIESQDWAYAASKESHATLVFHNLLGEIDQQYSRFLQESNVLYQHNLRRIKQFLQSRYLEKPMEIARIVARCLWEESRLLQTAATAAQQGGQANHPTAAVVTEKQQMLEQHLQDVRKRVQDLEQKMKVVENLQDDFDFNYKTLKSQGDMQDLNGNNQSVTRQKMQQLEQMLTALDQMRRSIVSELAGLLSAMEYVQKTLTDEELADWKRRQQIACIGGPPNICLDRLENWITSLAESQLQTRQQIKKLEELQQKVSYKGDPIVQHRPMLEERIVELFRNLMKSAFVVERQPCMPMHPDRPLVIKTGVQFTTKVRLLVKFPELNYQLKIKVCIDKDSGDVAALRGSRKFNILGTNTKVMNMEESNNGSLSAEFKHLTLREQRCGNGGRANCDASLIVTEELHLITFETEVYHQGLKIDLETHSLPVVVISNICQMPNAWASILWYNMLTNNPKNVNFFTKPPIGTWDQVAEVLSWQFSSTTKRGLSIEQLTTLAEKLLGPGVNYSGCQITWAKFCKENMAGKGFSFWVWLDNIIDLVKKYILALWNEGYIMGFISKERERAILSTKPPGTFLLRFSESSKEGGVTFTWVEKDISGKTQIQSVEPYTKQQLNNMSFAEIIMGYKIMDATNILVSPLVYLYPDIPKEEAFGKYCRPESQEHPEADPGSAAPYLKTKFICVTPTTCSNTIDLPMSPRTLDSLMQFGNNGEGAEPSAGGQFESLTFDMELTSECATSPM
Description: Assay on the expression of luciferase was performed as previously described (Jung J E, et al. FASEB J. 19, 1296-1298 (2005)). Plasmid DNA having STAT3-TA-luciferase as a reporter construct was temporarily expressed in HEK293T cells using Lipofectamine 2000, the HEK293T cells were treated with ODZ10117, the level of STAT3 expression was measured using a luminometer, and the inhibitory effect was compared with that of the DMSO-treated group.

MDA-MB-231 cells [3] = assay: Cell proliferation assay, MDA-MB-231; format: cell-based, human; conditions: MDA-MB-231, by time period, versus DMSO
Description: Cell proliferation assay was performed as previously described (Won C, et al. Anticancer Res. 30, 481-488 (2010)). In order to analyze the cell proliferation rate, U87-MG and MDA-MB-231 cell lines were dispensed into a 6-well culture dish, then treated with DMSO and ODZ10117 the next day, and stained with crystal violet after 0 h, 24 h, 48 h, and 72 h, and the number of live cells was calculated using a hemocytometer.

Bcl-2 and Bcl-XL = assay: Real-time polymerase chain reaction of anti-apoptotic genes; format: cell-based, human
Description: RNA isolation and real-time polymerase chain reaction were performed as described previously (Jung J E, et al. FASEB J. 19, 1296-1298 (2005)). Primer specific for human-derived Bcl-XL, Bcl-2, Twist, and GADPH genes were mixed with QuantiFast SYBR Green PCR master mix, and each gene was amplified using the Applied Biosystems 7300 real-time PCR system to compare the expression level.

U87-MG cells = assay: Wound healing assay, U87-MG; format: cell-based, human; conditions: 24 hours
Description: (§1) Wound healing assay was performed as previously described (Jung J E, et al. FASEB J. 19, 1296-1298 (2005)). The respective cells were dispensed into a 12-well plate (U87-MG: 5×10^5 cells/ml; MDA-MB-231: 3×10^5 cells/ml) and cultured until the cells proliferated 90% or more. Cells scraped off from the plate with the tip of the pipette were washed two times with PBS. After 24 hours, the proliferation (invasion) of cells at the part from which the cells were had been removed was observed under a microscope, and images were taken.

MDA-MB-231 cells [4] = assay: Wound healing assay, MDA-MB-231; format: cell-based, human; conditions: MDA-MB-231, 24 hours
Description: as §1

MDA-MB-231 cells [5] = assay: Matrigel invasion assay, MDA-MB-231; format: cell-based, human; conditions: MDA-MB-231, 24 hours, versus DMSO
Description: The growth factor-reduced Matrigel was diluted with a serum-free culture solution at a 1:3 ratio, transferred to a 24-well plate, and solidified at 37° C. for 5 hours. The cells were placed in a culture solution containing 1% serum and added to the solidified Matrigel, 600 μl of a culture solution containing 10% serum to which fibronectin was added at a concentration of […] was added thereto, and the cells were cultured for 24 hours. Thereafter, the cells were fixed and stained by adding Diffquick solution thereto and then observed under a Leica Application Suite microscope, and images were taken.

MMP-2 = assay: Activity of MMP-2 in U87-MG and MDA-MB-231 cells; format: cell-based, human; conditions: U87-MG and MDA-MB-231, 24 hours
MDA-MB-231 cells [6] = assay: Human tumor cell xenograft, MDA-MB-231; format: in vivo, BALB/c nude mice; conditions: MDA-MB-231 xenograft, injected directly into the tumor, versus DMSO
Description: Male Nude Mouse (BALB/cAnNCrj-nu/nu) was purchased from Charles River Japan Inc. (Shin-Yokohama, Japan). The mouse was bred in a clean room in which the temperature and humidity were constantly controlled. The breeding process was carried out according to the method described in the manual for maintenance of laboratory animals in Seoul National University. U87-MG cells or MDA-MB-231 cells were diluted with PBS, suspended in 100 μl of Matrigel at 25% concentration, and injected into the back of mouse and bred for 6 to 10 weeks. Human tumor growth was measured every other day using a vernier caliper from 2 weeks after cell injection. With regard to the degree of inhibition of human tumor cell formation, 40 μM of ODZ10117 was directly injected into the human tumor on days 0, 3, and 5 from week 4 of tumor cell injection. On the 7th day, the mouse was sacrificed to separate the tumor, and the tumor cell inhibitory efficacy of the drug was measured by being compared with that of the control group treated with 1% DMSO.

STAT3 [7] = target: T1, STAT3; assay: Nuclear translocation of STAT3 (fluorescence microscope); format: cell-based; parameters: endogenous in cells; host or cells: L540, HDLM-2, U87-MG, MDA-MB-231, further human glioblastoma and breast cancer lines; conditions: compared with the control group

## Clc1ccc(OCc2noc(C(Cl)(Cl)Cl)n2)c(Cl)c1 [ODZ10117, 3-(2,4-dichloro-phenoxymethyl)-5-trichloromethyl-[1,2,4]oxadiazole]
STAT92E
  promoter activity of STAT92E: significantly decreased the promoter activity of STAT92E
STAT3 [1]
  STAT3 inhibitory action (Western blot): judged to be extremely superior
STAT3 [2]; compared with DMSO-treated group
  promoter activity of STAT3: significantly decreased the promoter activity of STAT3
STAT3 [2]; various concentrations
  transcriptional activity of STAT3: inhibited the transcriptional activity of STAT3 in a concentration-dependent manner
MDA-MB-231 cells [3]
  cell proliferation: effectively inhibited the proliferation of the two cell lines
Bcl-2 and Bcl-XL
  expression levels of anti-apoptotic genes Bcl-2 and Bcl-XL: effectively inhibited the expression of these genes
U87-MG cells
  cell migration: significantly inhibited the migration of these cells
MDA-MB-231 cells [4]
  cell migration: significantly inhibited the migration of these cells
MDA-MB-231 cells [5]
  cell invasion: significantly decreased cell invasion in both the two cell lines
MMP-2
  activity of MMP-2: significantly decreased
MDA-MB-231 cells [6]
  tumor growth: significantly inhibited tumor growth
STAT3 [7]
  nuclear translocation of STAT3: further inhibited nuclear translocation of STAT3

Source: US20200354327A1, “COMPOUND HAVING STAT3 INHIBITORY ACTIVITY AND USE THEREOF” (CYTUS H&B CO., LTD., priority 2017, published 2020)
